The source of these data is patent publication US10501780B2, “Compositions for in situ nucleic acid analysis” (APPLIED BIOSYSTEMS, LLC, priority 2007, dated 2019).

One test addresses proteinase K (PK) (Parengyodontium album, UniProt P06873). It counts as biochemical. To be noted: PK 600 ug/ml, increasing inhibitor, 3 min; RNaseALERT fluorescence at 520 nm. How it is done:
PK (600 ug/ml) was mixed with increasing amounts of test inhibitor and allowed to react for 3 min at room temperature. RNase A was added and the mixture was incubated for 10 min. The RNase A was mixed with RNaseALERT™ substrate (AMBION®, Catalog No. AM1964) and incubated for 10 min. The fluorescence of the RNaseALERT™ substrate was measured at 520 nm.

Test [1] relates to DNase I. To be noted: 1 mM EDTA in Buffer A; 0.2 U DNase I. Here is the method:
The 590 nm fluorescence intensity with 544 nm excitation was measured with time.

The test system of test [2] is DNase I. Here is the method:
The ability of EGTA to inhibit DNase I activity and the limiting amount of EGTA that could be used in RT-PCR was determined. EGTA (88 mM; final conc. of 8 mM) was added to the stop solution for DNase I inactivation. The pH of the stop solution was 8.0 for AAPV (SEQ ID NO:1) inactivation of proteinase K. Tris-base with HCl as needed for pH adjustment (11 mM; final conc of 1 mM) was used for buffering the solution.

Test [3] can be described thus: Compatibility of protease inhibitors with two-step RT-PCR. Type of test: biochemical. The source says:
The samples were reverse transcribed using a Reverse Transcriptase Kit (Applied Biosystems Catalog No. 4368813) and the resulting cDNA was subjected to real time PCR with the TAQMAN® Universal PCR Master Mix (Applied Biosystems Catalog No. 4304437).

A short description of test [4]: Compatibility of protease inhibitors with 1-step RT-PCR. To be noted: one-step reaction.
The subject of a further test is HeLa cells. The test can be described thus: Lysis efficacy of surfactants by propidium iodide staining. Type of test: cell-based, H. sapiens. The settings on record: PI staining, 10^5 HeLa cells; for effectiveness at lysing cells: concentrations up to 3%. Here is the method: Lysis efficacies of seven surfactants were tested by PI staining (DNA fluorochrome propidium iodide stain for viability, 1 mg/ml) of 10^5 HeLa cells treated with 0.01% to 5% surfactant. The buffer was 10 mM Tris pH 7.5, 2.5 mM MgCl2, 0.5 mM CaCl2.

For another test, the target named is proteinase K (Parengyodontium album, UniProt P06873). Nature of the test: AAPV concentration for proteinase K inhibition in lysis solution (RNase A, Bioanalyzer protein chip). The settings on record: PK 100 ug/ml. Type of test: biochemical. Here is the method:
For one-step RT-PCR, AAPV (SEQ ID NO:1) is effective. To determine the concentration of AAPV (SEQ ID NO:1) for inhibition of proteinase K in the lysis solution, 50 uL lysis solution was mixed with 5 uL of stop solution with varying amounts of AAPV (SEQ ID NO:1) (11 mM Tris, 44 mM EGTA, […] AAPV (SEQ ID NO:1)) and incubated for 10 min. RNase A (15 ug) was added to each sample and the samples were held for 10 min at room temperature. The reaction mixture was heated for 30 min at 95° C. and analyzed using a Protein 50 Bioanalyzer chip (2100 Bioanalyzer, Agilent, Santa Clara, Calif.). The Bioanalyzer protein gel data are provided by FIG. 7 in which the lower marker is at about 3.5 kDa; the next higher prominent bands are system peaks at about 4.0-4.5 kDa; intact RNase A is at about 20 kDa; and proteinase K is at about 35 kDa. Lanes are labeled as follows: (L) Ladder, (1) RNase Only, (2) PK Only, (3)-(8) AAPV (SEQ ID NO:1) at 1 mM (3), 0.75 mM (4), 0.5 mM (5), 0.25 mM (6), 0.125 mM (7), and 0 mM (8).

Test [5] concerns the target T1, AMPLITAQ GOLD® DNA polymerase (Thermus aquaticus, UniProt P19821).
T1 construct: purchased Applied Biosystems 4304437
Nature of the test: Effect of surfactants on qPCR (TAQMAN Universal PCR Master Mix, PPIA assay). It counts as biochemical. The settings on record: even at 1% (0.1% final in PCR). Here is the method: The effects of surfactants on PCR reactions were then studied. qPCR (20 uL) reactions with 4 ng Human Universal reference liver cDNA (Catalog No. 780622; […]®, La Jolla, Calif.) were performed by adding 2 uL of surfactant resuspended in 10 mM Tris pH 7.5 at concentrations of 0.0%, 0.01%, 0.03%, 0.1%, 0.3%, and 1%. qPCR reactions were carried out using the TAQMAN® Universal PCR Master Mix (Applied Biosystems Catalog No. 4304437), and qRT-PCR reactions were carried out using the TAQMAN® One-Step RT-PCR Master Mix (Applied Biosystems Catalog No. 4309169). TAQMAN® gene expression assays were used to determine expressions levels of genes PPIA (peptidylprolyl isomerase A (cyclophilin A)) and B2M (β-2-microglobulin).
ROX™ background fluorescence was not affected.
In general terms: Quantitative PCR measures a nucleic acid by following its amplification.

Where [6] appears, read: concentrations up to 2 mM in the stopped mixture (up to 400 uM in an RT reaction).

*: point of attachment. MeOSuc = COC(=O)CCC(=O)*; CH2Cl = ClC*

proteinase K (PK), sequence (P06873 106-384): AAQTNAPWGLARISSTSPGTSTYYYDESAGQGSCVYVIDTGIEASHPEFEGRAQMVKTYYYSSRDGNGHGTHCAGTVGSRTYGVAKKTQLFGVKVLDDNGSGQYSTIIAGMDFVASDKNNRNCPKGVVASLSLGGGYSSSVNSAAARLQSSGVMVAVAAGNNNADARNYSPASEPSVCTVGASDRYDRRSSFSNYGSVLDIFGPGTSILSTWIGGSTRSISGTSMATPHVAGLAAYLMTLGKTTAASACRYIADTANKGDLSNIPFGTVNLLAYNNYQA
proteinase K, sequence (P06873 106-384): as above
T1 sequence (P19821 whole entry): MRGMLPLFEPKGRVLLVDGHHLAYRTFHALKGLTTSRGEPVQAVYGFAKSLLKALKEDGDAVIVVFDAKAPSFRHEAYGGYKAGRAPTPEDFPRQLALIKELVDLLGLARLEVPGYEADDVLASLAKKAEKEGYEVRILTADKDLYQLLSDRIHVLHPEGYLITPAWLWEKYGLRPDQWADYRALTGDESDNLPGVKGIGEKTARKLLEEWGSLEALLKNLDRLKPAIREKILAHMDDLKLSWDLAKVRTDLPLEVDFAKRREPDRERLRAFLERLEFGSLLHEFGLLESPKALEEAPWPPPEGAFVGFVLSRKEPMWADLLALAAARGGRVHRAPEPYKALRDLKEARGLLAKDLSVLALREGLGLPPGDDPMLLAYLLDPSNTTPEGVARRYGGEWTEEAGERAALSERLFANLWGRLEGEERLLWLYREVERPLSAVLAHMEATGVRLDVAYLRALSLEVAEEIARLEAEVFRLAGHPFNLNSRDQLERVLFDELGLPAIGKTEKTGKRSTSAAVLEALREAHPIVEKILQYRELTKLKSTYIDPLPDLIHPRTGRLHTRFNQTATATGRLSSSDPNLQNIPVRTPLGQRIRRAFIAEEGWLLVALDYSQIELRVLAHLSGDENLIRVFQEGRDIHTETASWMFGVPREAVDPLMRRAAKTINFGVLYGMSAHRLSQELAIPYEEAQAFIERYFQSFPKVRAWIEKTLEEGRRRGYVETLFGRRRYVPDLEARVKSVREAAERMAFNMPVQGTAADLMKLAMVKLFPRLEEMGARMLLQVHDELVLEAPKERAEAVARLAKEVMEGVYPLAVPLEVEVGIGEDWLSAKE

`NCCc1ccc(S(=O)(=O)F)cc1` [AEBSF, 4-(2-aminoethyl) benzenesulfonyl fluoride]: at proteinase K (PK), the “inhibition of PK at room temperature” value was “did not show inhibition”.
On to `O=C(O)CN(CCN(CC(=O)O)CC(=O)O)CC(=O)O` [EDTA, ethylenediamine tetraacetic acid], for which, in the test with DNase I [1], the “effect on DNase I activity (DNaseALERT substrate fluorescence)” value was “inhibitory effect”.
Take `O=C(O)CN(CCOCCOCCN(CC(=O)O)CC(=O)O)CC(=O)O` [EGTA, ethylene glycol tetraacetic acid]: the “concentration inhibiting DNase I” value in the test on DNase I [2] is no less than 4 mM.
`O=S(=O)(F)Cc1ccccc1` [PMSF, phenylmethylsulfonylfluoride]: the “RT-PCR inhibition (two-step)” value in test [3] (setting [6]) was “Minimal RT-PCR inhibition”. Moreover, the “compatibility with 1-step RT-PCR” value in test [4] is listed as “showed RT-PCR inhibition”.
As for `N=C(N)c1ccccc1` [benzamidine], the “inhibition of PK at room temperature” value at proteinase K (PK) is “did not show inhibition”.
As for `CC(=O)N[C@@H](CC(C)C)C(=O)N[C@@H](CC(C)C)C(=O)N[C@H](C=O)CCCNC(=N)N` [leupeptin, Ac-Leu-Leu-Arg-CHO], the “inhibition of PK at room temperature” value against proteinase K (PK) is “capable of inhibiting PK”.
Consider “N-tosyl-L-lysine-chloromethyl ketone [TLCK]”, for which the “inhibition of PK at room temperature” value at proteinase K (PK) is “did not show inhibition”.
With TWEEN™ 20, the “effectiveness at lysing cells” value with HeLa cells is given as “not effective”.
For the molecule TWEEN™ 40, the “effectiveness at lysing cells” value in the test on HeLa cells was “not effective”.
TWEEN™ 80: in the test with HeLa cells, the “effectiveness at lysing cells” value was “not effective”.
aprotinin: the “inhibition of PK at room temperature” value against proteinase K (PK) was “capable of inhibiting PK”. Further, the “RT-PCR inhibition (two-step)” value in test [3] (all concentrations tested) is “inhibitory”. Further, the “compatibility with 1-step RT-PCR” value in test [4] is on record as “showed RT-PCR inhibition”.
“methoxysuccinyl-Ala-Ala-Pro-Ala-chloromethyl ketone (MeOSuc-AAPA-CH2Cl)”: the “inhibition of PK at room temperature” value with proteinase K (PK) was “did not show inhibition”.
As to “methoxysuccinyl-Ala-Ala-Pro-Val-chloromethyl ketone (MeOSuc-AAPV-CH2Cl)”, in the test with proteinase K (PK), the “inhibition of PK at room temperature” value is recorded as “capable of inhibiting PK”. Besides, the “RT-PCR inhibition (two-step)” value in test [3] (setting [6]) is listed as “Minimal RT-PCR inhibition”. Further, the results for the “lowest concentration inhibiting PK” value with proteinase K and in the test with proteinase K (listed as Methoxysuccinyl-AAPV-chloromethyl ketone) were no less than 0.25 mM and no less than 0.75 mM, respectively. Also, the “compatibility with 1-step RT-PCR” value in test [4] was “compatible”.
As for “octylphenol ethoxylate having an average of 7.5 ethoxylate groups [TRITON X-114™]”, the “effect on qPCR (Ct)” value in test [5] is reported as “no effect”.
As for “octylphenol ethoxylate having an average of 9.5 ethoxylate groups [TRITON X-100™]”, the “concentrations effective for lysis” value with HeLa cells (0.01% to 5% surfactant tested, 1% TRITON X-100 as full lysis control) was no less than 0.05%.

B1: N-acetyl-Eglin C: Catalog No. E7888, Sigma-Aldrich; inhibitor of chymotrypsin, subtilisin, leukocyte elastase and cathepsin G (protein)
chain: Ac-TEFGSELKSFPEVVGKTVDQAREYFTLHYPQYDVYFLPEGSPVTLDLRYNRVRVFYNPGTNVVNHVPHVG
With B1, the “inhibition of PK at room temperature” value in the test with proteinase K (PK) is “did not show inhibition”.
